Active and inactive are the calls of the source. The calls are words filed in the database; no cut-off is given here.
Experiments:
Ovis aries [1] = organism: Ovis aries; test: Ring stabilizer activity at full-length native sheep brain dynamin 1 assessed as stimulation of GTPase activity at 5 uM in absence of PS liposomes using <100 nM full-length dynamin 1
Ovis aries [2] = organism: Ovis aries; test: Ring stabilizer activity at full-length native sheep brain dynamin 1 assessed as increase in basal dynamin GTP hydrolysis up to 40 mins
Mus musculus [3] = test: Reduction in proteinuria in BALB/c mouse model of LPS-induced reversible proteinuric kidney disease at 300 ug/100 g body weight, ip measured 8 hrs post dose by ELISA; type: functional, organism-based
Ovis aries [4] = organism: Ovis aries; test: Induction of helical shape alteration of full-length native sheep brain dynamin 1 by electron microscopic analysis
Ovis aries [5] = organism: Ovis aries; test: Inhibition of dis-assembly of pre-assembled full-length native sheep brain dynamin 1 pre-incubated in presence of PS liposomes followed compound addition at 5 uM and measured after 10 mins
Ovis aries [6] = organism: Ovis aries; test: Ring stabilizer activity at full-length native sheep brain dynamin 1 assessed as increase in basal dynamin GTP hydrolysis up to 40 mins in presence of Gsn-F-actin
Mus musculus [7] = organism: Mus musculus; test: Inhibition of endocytosis in mouse podocytes; type: functional, cell-based
Ovis aries [8] = organism: Ovis aries; test: Ring stabilizer activity at full-length native sheep brain dynamin 1 assessed as stimulation of GTPase activity in absence of PS liposomes and in presence of tween-80
Mus musculus [9] = test: Reduction in proteinuria in BALB/c mouse model of LPS-induced reversible proteinuric kidney disease at 300 ug/100 g body weight, ip measured 2 to 6 hrs post dose by ELISA; type: functional, organism-based
[10] = Inhibition of helical full-length native sheep brain dynamin 1 assessed as reduction in PS liposomes-induced GTPase activity; parameters: species or system Ovis aries
Dynamin-1 (Homo sapiens) = molecular target: T1, Dynamin-1 (Homo sapiens) (UniProt Q05193); test: Ring stabilizer activity at recombinant dynamin 1 dimeric GG2 form (unknown origin) assessed as stimulation of GTPase activity using 200 to 1000 nM full-length dynamin
T1 sequence (whole entry): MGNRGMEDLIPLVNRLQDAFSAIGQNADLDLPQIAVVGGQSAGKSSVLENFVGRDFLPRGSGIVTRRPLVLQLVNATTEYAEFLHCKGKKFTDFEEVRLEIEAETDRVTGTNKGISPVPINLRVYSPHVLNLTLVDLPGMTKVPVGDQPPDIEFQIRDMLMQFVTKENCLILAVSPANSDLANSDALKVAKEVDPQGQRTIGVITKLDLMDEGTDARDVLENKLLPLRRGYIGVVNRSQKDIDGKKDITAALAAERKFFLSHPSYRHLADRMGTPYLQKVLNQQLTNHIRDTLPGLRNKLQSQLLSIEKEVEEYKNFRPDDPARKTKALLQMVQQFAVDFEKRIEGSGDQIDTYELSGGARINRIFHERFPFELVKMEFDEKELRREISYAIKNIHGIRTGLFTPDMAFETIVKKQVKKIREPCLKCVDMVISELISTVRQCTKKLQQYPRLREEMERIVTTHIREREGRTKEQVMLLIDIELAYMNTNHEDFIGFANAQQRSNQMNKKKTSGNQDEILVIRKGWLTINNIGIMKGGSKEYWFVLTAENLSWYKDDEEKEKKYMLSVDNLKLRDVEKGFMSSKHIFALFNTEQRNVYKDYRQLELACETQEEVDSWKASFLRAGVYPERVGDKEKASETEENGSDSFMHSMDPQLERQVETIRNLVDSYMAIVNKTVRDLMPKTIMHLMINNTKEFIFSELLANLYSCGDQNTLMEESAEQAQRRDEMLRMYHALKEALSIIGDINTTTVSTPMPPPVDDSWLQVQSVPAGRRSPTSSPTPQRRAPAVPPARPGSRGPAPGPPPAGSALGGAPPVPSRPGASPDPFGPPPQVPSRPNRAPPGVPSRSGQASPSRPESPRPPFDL

Ovis aries [11] = organism: Ovis aries; test: Inhibition of full-length native sheep brain dynamin 1 assessed as reduction in PS liposomes-induced GTPase activity at 5 uM
Dynamin-1 (Mus musculus) [12] = molecular target: T2, Dynamin-1 (Mus musculus) (UniProt P39053); test: Ring stabilizer activity at dynamin in mouse podocytes assessed as increase in well-defined stress fibers incubated for 10 mins; type: cell-based
T2 sequence (whole entry): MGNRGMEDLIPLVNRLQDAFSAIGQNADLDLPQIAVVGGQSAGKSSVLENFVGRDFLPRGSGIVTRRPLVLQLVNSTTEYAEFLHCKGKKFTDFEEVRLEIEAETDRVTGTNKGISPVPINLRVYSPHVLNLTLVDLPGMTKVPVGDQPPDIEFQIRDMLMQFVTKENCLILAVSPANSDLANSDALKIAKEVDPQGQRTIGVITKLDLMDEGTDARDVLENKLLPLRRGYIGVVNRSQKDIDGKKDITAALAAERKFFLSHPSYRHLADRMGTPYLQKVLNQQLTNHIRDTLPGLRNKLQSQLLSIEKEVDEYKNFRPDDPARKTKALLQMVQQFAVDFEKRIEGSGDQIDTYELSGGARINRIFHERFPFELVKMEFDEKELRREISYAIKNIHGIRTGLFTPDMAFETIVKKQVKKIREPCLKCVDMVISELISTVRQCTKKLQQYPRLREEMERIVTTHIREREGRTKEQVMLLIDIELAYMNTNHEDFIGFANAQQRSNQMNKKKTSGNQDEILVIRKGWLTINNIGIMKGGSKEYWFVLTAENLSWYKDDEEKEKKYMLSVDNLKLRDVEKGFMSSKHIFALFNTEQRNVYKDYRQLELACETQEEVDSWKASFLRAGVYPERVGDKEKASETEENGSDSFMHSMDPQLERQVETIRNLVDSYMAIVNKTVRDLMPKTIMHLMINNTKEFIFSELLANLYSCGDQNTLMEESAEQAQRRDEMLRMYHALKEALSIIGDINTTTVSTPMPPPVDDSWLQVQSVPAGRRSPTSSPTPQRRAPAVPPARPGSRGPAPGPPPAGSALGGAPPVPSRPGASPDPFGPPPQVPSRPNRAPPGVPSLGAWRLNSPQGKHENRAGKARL

Ovis aries [13] = organism: Ovis aries; test: Ring stabilizer activity at full-length native sheep brain dynamin 1 assessed as stimulation of GTPase activity using 800 nM full-length dynamin in presence of 30 mM NaCl in absence of PS liposomes and measured after 4 mins; settings: TDE = time-dependent effect
Dynamin-1 (Mus musculus) [14] = molecular target: T2, Dynamin-1 (Mus musculus); test: Ring stabilizer activity at dynamin in mouse podocytes assessed as increase in focal adhesions incubated for 10 mins by paxillin staining based assay; type: cell-based
Ovis aries [15] = organism: Ovis aries; test: Ring stabilizer activity at full-length native sheep brain dynamin 1 assessed as stimulation of GTPase activity at 5 uM in absence of PS liposomes using =>100 nM full-length dynamin 1
Ovis aries [16] = organism: Ovis aries; test: Induction of self assembly of full-length native sheep brain dynamin 1 assessed as formation of dynamin rings at 5.4 uM using 200 nM full-length dynamin in absence of PS liposomes by electron microscopic analysis
Ovis aries [17] = organism: Ovis aries; test: Inhibition of full-length native sheep brain dynamin 1 assessed as reduction in PS liposomes-induced GTPase activity at 5 uM using 400 nM full-length dynamin 1
Mus musculus [18] = test: Reduction in proteinuria in mouse model of proteinuria expressing ACTN4 gene gain of function mutation at 166 ug/100 g body weight, ip dosed at 0 hrs and measured every 2 hrs post dose up to 6 hrs by ELISA and creatinine companion assay; type: functional, organism-based

N#C/C(=C\c1cc(O)c(O)c(O)c1)C(=O)NCCCNC(=O)/C(C#N)=C/c1cc(O)c(O)c(O)c1
Activity (Ovis aries [1]): inactive
Activity (Ovis aries [2]): Active
Activity (Mus musculus [3]): inactive
Activity (Ovis aries [4]): Active
inhibition (Ovis aries [5]): Active
Activity (Ovis aries [6]): Active
inhibition (Mus musculus [7]): Active
Activity (Ovis aries [8]): Active
Activity (Mus musculus [9]): Active
IC50 [10]: 500 nM
Activity (Dynamin-1 (Homo sapiens)): inactive
inhibition (Ovis aries [11]): Active
Activity (Dynamin-1 (Mus musculus) [12]): Active
Activity (Ovis aries [13]): Tde
Activity (Dynamin-1 (Mus musculus) [14]): Active
Activity (Ovis aries [15]): Active
Activity (Ovis aries [16]): Active
inhibition (Ovis aries [17]): inactive
Activity (Mus musculus [18]): Active

Reference: ChEMBL document CHEMBL4421721, “Use of dynamin ring stabilizers” (2012)
